Laboratory results published in PubChem BioAssay (NCI).
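Method: 48-hour compound exposure of cells in 96-well plates, five concentrations, linear interpolation of endpoints. GI50: concentration for 50% inhibition of growth. At the TGI there is no net growth.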

Key:
Test in all cases: NCI anticancer screen, dose series, 48 h
[1] = test system: HCC-2998 colon
[2] = test system: HOP-92 NSCLC
[3] = test system: KM12 colon
[4] = test system: MCF7 breast
[5] = test system: MDA-MB-231 breast
[6] = test system: MDA-MB-435
[7] = test system: NCI-H460 lung
[8] = test system: OVCAR-8 ovarian
[9] = test system: SK-MEL-5 melanoma
[10] = test system: U251 CNS

Compound: C=C1SC(=Nc2ccccc2Cl)N(C(=O)c2sc3ccccc3c2Cl)C1(C)C
- GI50 [1]: 8.54 µM
- TGI [1]: > 45 µM
- GI50 [2]: 3.47 µM
- TGI [2]: > 22.8 µM
- GI50 [3]: 4.01 µM
- TGI [3]: > 51.9 µM
- GI50 [4]: 3.76 µM
- TGI [4]: > 51.7 µM
- GI50 [5]: 8.68 µM
- TGI [5]: 59.5 µM
- GI50 [6]: 17.3 µM
- TGI [6]: 97 µM
- GI50 [7]: 4.14 µM
- TGI [7]: > 57.1 µM
- GI50 [8]: 5.08 µM
- TGI [8]: > 100 µM
- GI50 [9]: 6.65 µM
- TGI [9]: 25.2 µM
- GI50 [10]: 4.12 µM
- TGI [10]: > 100 µM

Compound: C#Cc1cccc(Nc2ncnc3ccc(-c4cnc(Cl)c(NS(C)(=O)=O)c4)cc23)c1
- GI50 [1]: 0.416 µM
- TGI [1]: 1.78 µM
- GI50 [2]: 0.078 µM
- TGI [2]: 0.835 µM
- GI50 [3]: 0.891 µM
- TGI [3]: 2.55 µM
- GI50 [4]: 0.104 µM
- TGI [4]: 2.57 µM
- GI50 [5]: 0.44 µM
- TGI [5]: 3.66 µM
- GI50 [6]: 0.383 µM
- TGI [6]: 2.34 µM
- GI50 [7]: 0.572 µM
- TGI [7]: 11.7 µM
- GI50 [8]: 0.825 µM
- TGI [8]: > 33.5 µM
- GI50 [9]: 0.243 µM
- TGI [9]: 0.704 µM
- GI50 [10]: 0.284 µM
- TGI [10]: 2.68 µM

Compound: N=C1C(c2nc3ccccc3s2)=C(O)CN1c1ccc(Cl)cc1Cl
- GI50 [1]: 10.4 µM
- TGI [1]: 31.1 µM
- GI50 [2]: 15.8 µM
- TGI [2]: 38.1 µM
- GI50 [3]: 11.7 µM
- TGI [3]: 65.7 µM
- GI50 [4]: 41.2 µM
- TGI [4]: > 100 µM
- GI50 [5]: 17.1 µM
- TGI [5]: 42.9 µM
- GI50 [6]: 16.5 µM
- TGI [6]: > 100 µM
- GI50 [7]: 33.4 µM
- TGI [7]: > 100 µM
- GI50 [8]: 18.2 µM
- TGI [8]: 47.1 µM
- GI50 [9]: 19.2 µM
- TGI [9]: > 100 µM
- GI50 [10]: 10.1 µM
- TGI [10]: 29.9 µM

Compound: COC1CC2C=CC3C4OC2(/C(C)=C/C(C)C(C(C)O)OC1=O)C3C(O)C(C)C4OC(=O)c1ccc[nH]1 (stereo not given)
- TGI [1]: > 100 µM
- TGI [2]: > 100 µM
- TGI [3]: > 100 µM
- TGI [4]: > 100 µM
- TGI [5]: > 100 µM
- TGI [6]: > 100 µM
- TGI [7]: > 100 µM
- TGI [8]: > 100 µM
- TGI [9]: > 100 µM
- TGI [10]: > 100 µM

Compound: O=S(=O)(NCCCNc1cc(-c2cn(-c3ccccc3)nc2-c2cccc(O)c2)ccn1)c1cccc2ccccc12
- GI50 [1]: 1.75 µM
- TGI [1]: 3.45 µM
- GI50 [2]: 1.41 µM
- TGI [2]: 7.28 µM
- GI50 [3]: 2.49 µM
- TGI [3]: 7.57 µM
- GI50 [4]: 1.96 µM
- TGI [4]: 5.45 µM
- GI50 [5]: 1.86 µM
- TGI [5]: 6.52 µM
- GI50 [6]: 3.48 µM
- TGI [6]: 37.4 µM
- GI50 [7]: 2.89 µM
- TGI [7]: 10.4 µM
- GI50 [8]: 5.46 µM
- TGI [8]: > 100 µM
- GI50 [9]: 1.57 µM
- TGI [9]: 3.41 µM
- GI50 [10]: 1.78 µM
- TGI [10]: 13.1 µM

Compound: N/C(=N\c1nc2ccccc2s1)NC(=O)Nc1ccccc1Cl
- GI50 [1]: 0.348 µM
- TGI [1]: 10.9 µM
- GI50 [2]: 0.356 µM
- TGI [2]: 56.4 µM
- GI50 [3]: 0.127 µM
- TGI [3]: 12 µM
- GI50 [4]: 0.112 µM
- TGI [4]: > 100 µM
- GI50 [5]: 0.431 µM
- TGI [5]: 8.21 µM
- GI50 [6]: 0.0269 µM
- TGI [6]: 0.0868 µM
- GI50 [7]: 0.149 µM
- TGI [7]: 10.4 µM
- GI50 [8]: 0.179 µM
- TGI [8]: 25.1 µM
- GI50 [9]: 0.318 µM
- TGI [9]: 13.5 µM
- GI50 [10]: 0.122 µM
- TGI [10]: 5.57 µM
